Assay results from PubChem BioAssay AID1189 (EPA DSSTox, 2008).
The source made the active and inactive calls.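 Rule for the calls: active = a tumor-causing dose value with its tumor site reported for any sex and species group of a rodent or other animal cancer study; inconclusive = only studies judged inadequate by the national testing program; inactive = tested in at least one study, none positive.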 Numbered stars: 1 amine (or outer) side, 2 acyl side, 3 side chain; on linkers, the order of the positions; unused ones are H or OH. Bridge positions count the residues as written; N and C are the ends. Square brackets hold non-standard residues; d marks the D form. Peptide text beside a SMILES is read from it. I, II: the chains in the order shown. Actinocin(1to9) = Cc1c2oc3c(C)ccc(C(=O)[*:2])c3nc-2c(C(=O)[*:1])c(N)c1=O; d(aIle) = CC[C@H](C)[C@@H](N)C(=O)O; NMeV = CN[C@H](C(=O)O)C(C)C; Sar = CNCC(=O)O

Experiment: DSSTox (CPDBAS) Carcinogenic Potency Database Summary SingleCellCall Results
Conditions: animal chronic carcinogenicity bioassays, CPDB summary call
How it was run: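 Categorical carcinogenicity call compiled from published chronic rodent and other animal cancer bioassays; based on the most positive result across experiments for each sex-species, assigned on minimal evidence for or against activity.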

| Compound | outcome |
| --- | --- |
| C=CCO | inactive; active |
| CCCC[N+](=O)[O-] | inactive |
| CCCCCCCCCCCN(C)N=O | active; inactive |
| CC(N)=O | active; inactive |
| O=C1NC(=O)C(c2ccccc2)(c2ccccc2)N1 | active |
| ClC(Cl)(Cl)C(Cl)(Cl)Cl | active |
| CC1=CC(C)(C)N(N=O)c2ccccc21 | active |
| Nc1nc(N)c2nc(-c3ccccc3)c(N)nc2n1 | active; inactive |
| CC(=O)Nc1ccc(C(=O)CCl)cc1 | inactive |
| NNC(=O)c1cccnc1 | active |
| CC1SC(C)N(N=O)C(C)S1 (configuration not stated) | active |
| CO[C@@]12[C@H](COC(N)=O)C3=C(C(=O)C(C)=C(N)C3=O)N1C[C@@H]1N[C@@H]12 | active |
| CN(N=O)c1ccc(/C=C/c2ccnc3ccccc23)cc1 | active |
| CCCCC/C=N/N(C)C=O | active |
| OCCOCCOCCO | inactive |
| NC1=NC(=O)C(c2ccccc2)O1 (configuration not stated) | inactive; active |
| C#C[C@@]1(O)CC[C@H]2[C@@H]3CCC4=CCCC[C@@H]4[C@H]3CC[C@@]21C | active |
| O=C(Nc1nc(-c2ccc([N+](=O)[O-])o2)cs1)C(F)(F)F | active |
| CNC(=O)Oc1cccc2c1OC(C)(C)C2 | inactive |
| NC(=O)N(CCO)N=O | active; inactive |
| O=C1C(Cl)=C(Cl)C(=O)C(Cl)=C1Cl | inactive |
| NC1=NCN([C@@H]2O[C@H](CO)[C@@H](O)[C@H]2O)C(=O)N1 | inactive; active |
| CC(=O)Nc1ccc2c(c1)Cc1cc(NC(C)=O)ccc1-2 | inactive |
| C=C1C/C(=C/C)C(=O)O[C@@H]2CCN3CC=C(COC(=O)[C@@]1(O)CO)[C@H]23 | active; inactive |

| Compound | outcome |
| --- | --- |
| CC1=C[C@H]2[C@@]3(O)[C@H](C)[C@@H](O)[C@]4(O)[C@H]([C@@H]3C=C(CO)C[C@]2(O)C1=O)C4(C)C | active |
| CCN(CC)N=O | active; inactive |
| O=[N+]([O-])c1ccc(-c2cscn2)o1 | active |
| CN(C)NC(=O)CCC(=O)O | active |
| C=Cc1ccccc1 | active |
| O=C1c2ccccc2CN2C(=O)c3ccccc3CN12 | active |
| CNNC | active |
| CCNC(=O)N(CCO)N=O | active |
| C=C(Cl)Cl | active |
| CC(C)(C)c1cc(O)ccc1O | inactive |
| Cc1cc(Cl)ccc1OCC(=O)O | inactive |
| O=C(O)CCCc1ccc(N(CCCl)CCCl)cc1 | active |
| CCCCC(CC)CO (configuration not stated) | active; inactive |
| Cc1cccc(C)c1NC(=O)CN1CCCC1=O | inactive |
| Nc1ccc2c(c1)C(=O)c1ccccc1C2=O | active |
| O=S1OCCO1 | inactive |
| Cc1cc(N)ccc1N | inactive |
| CC(C)CCCCCCOC(=O)c1ccccc1C(=O)OCCCCCCC(C)C | active; inactive |
| CC(O)CN(C)N=O (configuration not stated) | active |
| CCCCCCN(N=O)C(N)=O | active; inactive |
| CCOC(=O)CC(SP(=O)(OC)OC)C(=O)OCC (configuration not stated) | inactive |
| COC(=O)C1=C(C)NC(C)=C(C(=O)OCCN2CCN(C(c3ccccc3)c3ccccc3)CC2)C1c1cccc([N+](=O)[O-])c1 (configuration not stated) | inactive |
| C=CCN(N=O)C(N)=O | active |
| O=NN1CCN(N=O)CC1 | active; inactive |

| Compound | outcome |
| --- | --- |
| Cc1cc2c(nc1N)[nH]c1ccccc12 | active |
| CC(=O)Nc1cccc2c1Cc1ccccc1-2 | inactive; active |
| c1ccc2c(c1)[nH]c1cnccc12 | inactive |
| Cc1cc(OC(=O)N(C)C)n(C(C)C)n1 | inactive; active |
| O=C(O)c1nn(Cc2ccc(Cl)cc2Cl)c2ccccc12 | inactive |
| COc1ccc(CN(CCN(C)C)c2ccccn2)cc1 | active; inactive |
| ClCC(Br)CBr (configuration not stated) | active |
| Cl | inactive |
| CCOC(=O)CC(SP(=S)(OC)OC)C(=O)OCC (configuration not stated) | inactive |
| Nc1ccc(-c2ccc(N)c(N)c2)cc1N | active |
| NCCc1ccc(O)c(O)c1 | inactive |
| OC[P+](CO)(CO)CO | inactive; active |
| OC[C@H]1O[C@H](O[C@]2(CCl)O[C@H](CCl)[C@@H](O)[C@@H]2O)[C@H](O)[C@@H](O)[C@H]1Cl | inactive |
| O=CCCCC=O | inactive; active |
| O=NN1CCC(O)C1 (configuration not stated) | active |
| ClC(Cl)Cl | active |
| Nc1nc(=S)c2ncn([C@H]3C[C@H](O)[C@@H](CO)O3)c2[nH]1 | active |
| CC(C)(C)c1cc([N+](=O)[O-])cc([N+](=O)[O-])c1OS(C)(=O)=O | inactive |
| O=C(Nc1ccc([N+](=O)[O-])cc1Cl)c1cc(Cl)ccc1O | inactive |
| S=C(S)NCCNC(=S)S | inactive |
| NNCCO | active; inactive |
| CCCCCC | active |
| C1CC2OC2CC1C1CO1 (configuration not stated) | inactive |
| CS(=O)(=O)c1ccc([C@@H](O)[C@@H](CO)NC(=O)C(Cl)Cl)cc1 | inactive |

| Compound | outcome |
| --- | --- |
| CCS(=O)(=O)c1ccc(S(N)(=O)=O)c2ccccc12 | active |
| COP(=O)(OC)O/C(=C\Cl)c1cc(Cl)c(Cl)cc1Cl | active; inactive |
| O=C(O)[C@@H]1[C@H](C(=O)O)[C@@]2(Cl)C(Cl)=C(Cl)[C@]1(Cl)C2(Cl)Cl | active |
| COc1ccc([C@@H]2CC(=O)c3c(O)cc(O[C@@H]4O[C@H](CO[C@@H]5O[C@@H](C)[C@H](O)[C@@H](O)[C@H]5O)[C@@H](O)[C@H](O)[C@H]4O)cc3O2)cc1OC | inactive |
| OC[C@@H](O)[C@@H](O)[C@H](O)[C@H](O)CO[C@H]1O[C@H](CO)[C@@H](O)[C@H](O)[C@H]1O | inactive |
| O=C(O)c1cc(O)c(O)c(O)c1 | inactive |
| O=NN1C[C@H](O)C[C@H]1C(=O)O | inactive |
| CC1=C(/C=C/C(C)=C/C=C/C(C)=C/C=C/C=C(C)/C=C/C=C(C)/C=C/C2=C(C)CCCC2(C)C)C(C)(C)CCC1 | inactive |
| CN(N=O)C(=O)c1c(N(C)N=O)ncn1C | active |
| O=NN1CCCCCCCCCCCC1 | active |
| ClC1=C(Cl)[C@@]2(Cl)[C@@H]3[C@@H](Cl)[C@H](Cl)C[C@@H]3C1(Cl)C2(Cl)Cl | active |
| C[C@]12C=CC(=O)C=C1CC[C@@H]1[C@@H]2[C@@H](O)C[C@@]2(C)[C@H]1CC[C@]2(O)C(=O)COC(=O)CCCc1ccc(N(CCCl)CCCl)cc1 | active |
| C=CCOc1ccccc1OCC(O)CNC(C)C (configuration not stated) | inactive |
| CC(=O)NNc1ccc(CO)cc1 | active |
| O=[N+]([O-])c1ccc2ccc3cccc4ccc1c2c34 | active |
| COC(=O)[C@H]1[C@H]2C[C@@H]3c4[nH]c5cc(OC)ccc5c4CCN3C[C@H]2C[C@@H](OC(=O)c2cc(OC)c(OC)c(OC)c2)[C@@H]1OC | active |
| CN(CC(O)CO)N=O (configuration not stated) | active |
| CN(C)CCC(c1ccc(Cl)cc1)c1ccccn1 (configuration not stated) | inactive |
| CCOP(=S)(OCC)SC1OCCOC1SP(=S)(OCC)OCC (configuration not stated) | inactive |
| Cc1ccc(C)c(N)c1 | active |
| N#CC(c1ccccc1)c1ccccc1 | inactive |
| O=[N+]([O-])/C=C/c1ccccc1 | inactive |
| Nc1cc(S(=O)(=O)O)cc2cc(S(=O)(=O)O)c(N=Nc3ccc(-c4ccc(N=Nc5c(S(=O)(=O)O)cc6cc(S(=O)(=O)O)cc(N)c6c5O)cc4)cc3)c(O)c12 | active |
| CC1CN(N=O)CC(C)N1C (configuration not stated) | active |

| Compound | outcome |
| --- | --- |
| COc1cc(-c2ccc(N)c(OC)c2)ccc1N | active; inactive |
| OCc1ccco1 | active |
| CCN(N=O)C(N)=O | active; inactive |
| O=C1Nc2ccc(Cl)cc2C(c2ccccc2)=NC1O (configuration not stated) | active |
| O=C(O)COc1ccc(Cl)cc1Cl | inactive |
| CC1=C(C(=O)OCCN(Cc2ccccc2)c2ccccc2)C(c2cccc([N+](=O)[O-])c2)C(P2(=O)OCC(C)(C)CO2)=C(C)N1 (configuration not stated) | inactive |
| CCCCN(CCCC)C(=S)[S-].CCCCN(CCCC)C(=S)[S-].[Ni+2] | inactive; active |
| CC(=O)[O][Sn]([c]1ccccc1)([c]1ccccc1)[c]1ccccc1 | inactive; active |
| Cc1ccc(N)c(C)c1 | active |
| C[C@]12CC[C@@H]3c4ccc(O)cc4CC[C@H]3[C@@H]1CC[C@@H]2O | inactive |
| NC(=O)CCCCn1ccc(NC(N)=NCC(F)(F)F)n1 | active; inactive |
| CCCN(N)C=O | active |
| CC[C@H](C)[C@H]1NC(=O)[C@@H](NC(=O)c2c3nc4c(C(=O)N[C@@H]5C(=O)N[C@H](C(C)C)C(=O)N6CCC[C@H]6C(=O)N(C)CC(=O)N(C)[C@@H](C(C)C)C(=O)O[C@@H]5C)ccc(C)c4oc-3c(C)c(=O)c2N)[C@@H](C)OC(=O)[C@H](C(C)C)N(C)C(=O)CN(C)C(=O)[C@@H]2CCCN2C1=O (I: T[d(aIle)]P[Sar][NMeV] / II: T[dV]P[Sar][NMeV]; ester I:1-I:C, II:1-II:C; linker I:N-II:N via Actinocin(1to9)) | inactive |
| CCOC(=O)[C@H](CCc1ccccc1)N[C@@H](C)C(=O)N1Cc2ccccc2C[C@H]1C(=O)O | inactive; active |
| CC1CC(C)(C)CC(OOC(C)(C)C)(OOC(C)(C)C)C1 (configuration not stated) | inactive; active |
| CN(CCCC(O)c1cccnc1)N=O (configuration not stated) | active |
| Cc1c([N+](=O)[O-])c(C)c([N+](=O)[O-])c(C(C)(C)C)c1[N+](=O)[O-] | active |
| NC(=O)c1ccccc1C(N)=O | inactive |
| CC(=O)O[C@]1(C(C)=O)CC[C@H]2[C@@H]3C=C(Cl)C4=CC(=O)[C@@H]5C[C@@H]5[C@]4(C)[C@H]3CC[C@@]21C | active; inactive |
| NC(CCC(=O)O)C(=O)O (configuration not stated) | inactive; active |
| O=S(=O)(O)c1cc(S(=O)(=O)O)c2c(N=Nc3ccccc3)c(O)ccc2c1 | inactive |
